From patent US20240109853A1 (Shanghai Yao Yuan Biotechnology Co., Ltd., priority 2020, published 2024)
pIC50: −log10 of the molar value.

molecular target: ALPK1 (Homo sapiens (Human), UniProt Q96QP1); assay: ALPK1 in vitro kinase assay (HTRF of TIFA phosphorylation); format: biochemical; details: ALPK1 2 nM, TIFA substrate, ADP-Heptose activator, HTRF readout
Sequence (Q96QP1 whole entry): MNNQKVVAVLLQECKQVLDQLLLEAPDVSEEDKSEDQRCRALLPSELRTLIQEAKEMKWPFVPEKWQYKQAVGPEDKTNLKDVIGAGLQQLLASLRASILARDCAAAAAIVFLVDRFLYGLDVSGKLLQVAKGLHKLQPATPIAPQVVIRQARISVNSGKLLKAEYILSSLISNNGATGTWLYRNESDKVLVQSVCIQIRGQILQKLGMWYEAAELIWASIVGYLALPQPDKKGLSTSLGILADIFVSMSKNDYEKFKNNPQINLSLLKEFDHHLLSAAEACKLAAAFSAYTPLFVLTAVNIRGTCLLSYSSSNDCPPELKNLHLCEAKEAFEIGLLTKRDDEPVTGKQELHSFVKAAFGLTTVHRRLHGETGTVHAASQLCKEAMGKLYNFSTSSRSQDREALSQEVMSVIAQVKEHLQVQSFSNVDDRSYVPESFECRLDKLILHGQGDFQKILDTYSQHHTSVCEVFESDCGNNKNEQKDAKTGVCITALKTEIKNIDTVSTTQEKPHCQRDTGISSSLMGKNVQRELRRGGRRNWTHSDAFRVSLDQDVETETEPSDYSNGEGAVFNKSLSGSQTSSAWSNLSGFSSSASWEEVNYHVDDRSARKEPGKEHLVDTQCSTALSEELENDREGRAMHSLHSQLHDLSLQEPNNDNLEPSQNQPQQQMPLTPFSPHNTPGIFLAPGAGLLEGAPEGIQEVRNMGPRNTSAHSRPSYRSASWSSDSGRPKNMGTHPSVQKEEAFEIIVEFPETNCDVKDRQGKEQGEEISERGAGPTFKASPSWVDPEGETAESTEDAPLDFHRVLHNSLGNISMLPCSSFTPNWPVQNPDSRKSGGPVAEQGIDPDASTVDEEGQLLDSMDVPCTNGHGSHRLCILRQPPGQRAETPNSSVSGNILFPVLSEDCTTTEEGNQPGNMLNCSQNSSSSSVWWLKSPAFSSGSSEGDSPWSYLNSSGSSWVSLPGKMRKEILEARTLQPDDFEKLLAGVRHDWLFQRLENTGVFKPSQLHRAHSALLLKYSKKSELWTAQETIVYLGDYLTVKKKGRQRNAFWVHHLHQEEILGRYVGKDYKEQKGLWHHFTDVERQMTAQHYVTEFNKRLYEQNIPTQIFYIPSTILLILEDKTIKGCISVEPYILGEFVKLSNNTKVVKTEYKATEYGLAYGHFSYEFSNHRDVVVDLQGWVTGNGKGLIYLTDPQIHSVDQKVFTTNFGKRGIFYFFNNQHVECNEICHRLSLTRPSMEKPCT

| SMILES | pIC50 |
| --- | --- |
| COCC(C)(c1ccccc1)c1csc(NC(=O)c2c(F)cc(N3CCNCC3)cc2F)n1 (centres unmarked) [Example C004, 2,6-difluoro-N-(4-(1-methoxy-2-phenylpropan-2-yl)thiazol-2-yl)-4-(piperazin-1-yl)benzamide] | 7.66 |
| CC(C)(c1ccc(F)cc1)c1csc(NC(=O)c2c(F)cc(N3CCNCC3)cc2F)n1 [Example C005, 2,6-difluoro-N-(4-(2-(4-fluorophenyl)propan-2-yl)thiazol-2-yl)-4-(piperazin-1-yl)benzamide] | 8.22 |
| O=C(Nc1nc(C2(c3ccc(Br)cc3)CCCC2)cs1)c1c(F)cc(N2CCNCC2)cc1F [Example C006, N-(4-(1-(4-bromophenyl)cyclopentyl)thiazol-2-yl)-2,6-difluoro-4-(piperazin-1-yl)benzamide] | 7.37 |
| C#CC(C)(c1ccc(Cl)cc1)c1csc(NC(=O)c2c(F)cc(N3CCN(C)CC3)cc2F)n1 (centres unmarked) [Example C009, N-(4-(2-(4-chlorophenyl)but-3-yn-2-yl)thiazol-2-yl)-2,6-difluoro-4-(4-methylpiperazin-1-yl)benzamide] | 8.15 |
| C#C[C@](C)(c1ccc(Cl)cc1)c1csc(NC(=O)c2c(F)cc(N3CCN(C)CC3)cc2F)n1 [Example C010, (R)-N-(4-(2-(4-chlorophenyl)but-3-yn-2-yl)thiazol-2-yl)-2,6-difluoro-4-(4-methylpiperazin-1-yl)benzamide] | 7.25 |
| CCOCC(C)(c1ccccc1)c1csc(NC(=O)c2c(F)cc(N3CCNCC3)cc2F)n1 (centres unmarked) [Example C012, N-(4-(1-ethoxy-2-phenylpropan-2-yl)thiazol-2-yl)-2,6-difluoro-4-(piperazin-1-yl)benzamide] | 7.11 |
| COCC(C)(c1ccc(Br)cc1)c1csc(NC(=O)c2c(F)cc(N3CCNCC3)cc2F)n1 (centres unmarked) [Example C014, N-(4-(2-(4-bromophenyl)-1-methoxypropan-2-yl)thiazol-2-yl)-2,6-difluoro-4-(piperazin-1-yl)benzamide] | 7.89 |
| CN1CCN(c2cc(F)c(C(=O)Nc3nc(C4(c5ccc(Br)cc5)CCCC4)cs3)c(F)c2)CC1 [Example C015, N-(4-(1-(4-bromophenyl)cyclopentyl)thiazol-2-yl)-2,6-difluoro-4-(4-methylpiperazin-1-yl)benzamide] | 6.58 |
| COC[C@](C)(c1ccccc1)c1csc(NC(=O)c2c(F)cc(N3CCNCC3)cc2F)n1 [Example C017, (R)-2,6-difluoro-N-(4-(1-methoxy-2-phenylpropan-2-yl)thiazol-2-yl)-4-(piperazin-1-yl)benzamide] | 7.17 |
| C#C[C@@](C)(c1ccc(Cl)cc1)c1nc(NC(=O)c2c(F)cc(N3CCNCC3)cc2F)sc1Cl [Example C020, (S)-N-(5-chloro-4-(2-(4-chlorophenyl)but-3-yn-2-yl)thiazol-2-yl)-2,6-difluoro-4-(piperazin-1-yl)benzamide] | 7.06 |
| COCC(C)(c1ccc(OC)cc1)c1csc(NC(=O)c2c(F)cc(N3CCNCC3)cc2F)n1 (centres unmarked) [Example C021, 2,6-difluoro-N-(4-(1-methoxy-2-(4-methoxyphenyl)propan-2-yl)thiazol-2-yl)-4-(piperazin-1-yl)benzamide] | 7.36 |
| C#C[C@](C)(c1ccc(Cl)cc1)c1csc(NC(=O)c2c(F)cc(N3CCN(CCO)CC3)cc2F)n1 [Example C022, (R)-N-(4-(2-(4-chlorophenyl)but-3-yn-2-yl)thiazol-2-yl)-2,6-difluoro-4-(4-(2-hydroxyethyl)piperazin-1-yl)benzamide] | 6.73 |
| C#C[C@@](C)(c1ccc(Cl)cc1)c1csc(NC(=O)c2c(F)cc(N3CCN(CCO)CC3)cc2F)n1 [Example C023, (S)-N-(4-(2-(4-chlorophenyl)but-3-yn-2-yl)thiazol-2-yl)-2,6-difluoro-4-(4-(2-hydroxyethyl)piperazin-1-yl)benzamide] | 7.22 |
| COC[C@](C)(c1ccc(Cl)cc1)c1csc(NC(=O)c2c(F)cc(N3CCNCC3)cc2F)n1 [Example C024, (R)-N-(4-(2-(4-chlorophenyl)-1-methoxypropan-2-yl)thiazol-2-yl)-2,6-difluoro-4-(piperazin-1-yl)benzamide] | 6.89 |
| COC[C@@](C)(c1ccc(Cl)cc1)c1csc(NC(=O)c2c(F)cc(N3CCNCC3)cc2F)n1 [Example C025, (S)-N-(4-(2-(4-chlorophenyl)-1-methoxypropan-2-yl)thiazol-2-yl)-2,6-difluoro-4-(piperazin-1-yl)benzamide] | 8.10 |
| O=C(Nc1nc(C2(c3ccc(Br)cc3)CCCC2)cs1)c1c(F)cc(N2CCNCC2)cc1F [Example C026, N-(4-(1-(4-bromophenyl)cyclopentyl)thiazol-2-yl)-2,6-difluoro-4-(piperazin-1-yl)benzamide] | 6.36 |

| SMILES | pIC50 |
| --- | --- |
| COCC(C)(c1ccc(Br)cc1)c1csc(NC(=O)c2c(F)cc(N3CCNCC3)cc2F)n1 (centres unmarked) [Example C027, N-(4-(2-(4-bromophenyl)-1-methoxypropan-2-yl)thiazol-2-yl)-2,6-difluoro-4-(piperazin-1-yl)benzamide] | 7.00 |
| COCC(C)(c1ccc(OC)cc1)c1csc(NC(=O)c2c(F)cc(N3CCNCC3)cc2F)n1 (centres unmarked) [Example C028, 2,6-difluoro-N-(4-(1-methoxy-2-(4-methoxyphenyl)propan-2-yl)thiazol-2-yl)-4-(piperazin-1-yl)benzamide] | 6.54 |
| COCC(C)(c1ccc(Cl)cc1)c1csc(NC(=O)c2c(F)cc(N3CCNCC3)cc2F)n1 (centres unmarked) [Example C029, N-(4-(2-(4-chlorophenyl)-1-methoxypropan-2-yl)thiazol-2-yl)-2,6-difluoro-4-(piperazin-1-yl)benzamide] | 6.89 |
| CN1CCN(c2cc(F)c(C(=O)Nc3nc(C4(c5ccc(Br)cc5)CCCC4)cs3)c(F)c2)CC1 [Example C030, N-(4-(1-(4-bromophenyl)cyclopentyl)thiazol-2-yl)-2,6-difluoro-4-(4-methylpiperazin-1-yl)benzamide] | 5.75 |
| CCOCC(C)(c1ccccc1)c1csc(NC(=O)c2c(F)cc(N3CCNCC3)cc2F)n1 (centres unmarked) [Example C031, N-(4-(1-ethoxy-2-phenylpropan-2-yl)thiazol-2-yl)-2,6-difluoro-4-(piperazin-1-yl)benzamide] | 6.19 |
| C#CC(C)(c1ccc(OC(F)F)cc1)c1csc(NC(=O)c2c(F)cc(N3CCNCC3)cc2F)n1 (centres unmarked) [Example C033, N-(4-(2-(4-(difluoromethoxy)phenyl)but-3-yn-2-yl)thiazol-2-yl)-2,6-difluoro-4-(piperazin-1-yl)benzamide] | 7.14 |
| CC(c1ccc(Cl)cc1)(c1csc(NC(=O)c2c(F)cc(N3CCNCC3)cc2F)n1)C1CC1 (centres unmarked) [Example C045, N-(4-(1-(4-chlorophenyl)-1-cyclopropylethyl)thiazol-2-yl)-2,6-difluoro-4-(piperazin-1-yl)benzamide] | 7.60 |
| C#CC(CC)(c1ccc(Cl)cc1)c1csc(NC(=O)c2c(F)cc(N3CCNCC3)cc2F)n1 (centres unmarked) [Example C047, N-(4-(3-(4-chlorophenyl)pent-1-yn-3-yl)thiazol-2-yl)-2,6-difluoro-4-(piperazin-1-yl)benzamide] | 6.88 |
| C#CC(C)(c1ccc(Cl)cc1)c1coc(NC(=O)c2c(F)cc(N3CCNCC3)cc2F)n1 (centres unmarked) [Example C051, N-(4-(2-(4-chlorophenyl)but-3-yn-2-yl)oxazol-2-yl)-2,6-difluoro-4-(piperazin-1-yl)benzamide] | 7.59 |
| C#CC(C)(c1ccc(Cl)cc1)c1c[nH]c(NC(=O)c2c(F)cc(N3CCNCC3)cc2F)n1 (centres unmarked) [Example C052, N-(4-(2-(4-chlorophenyl)but-3-yn-2-yl)-1H-imidazol-2-yl)-2,6-difluoro-4-(piperazin-1-yl)benzamide] | 7.36 |
| CC(=O)Nc1nc(C(C)(C)c2ccc(Br)cc2)cs1 [Example D001, N-(4-(2-(4-bromophenyl)propan-2-yl)thiazol-2-yl)acetamide] | 7.00 |
| C#CC(C)(c1ccc(OC)cc1)c1csc(NC(C)=O)n1 (centres unmarked) [Example D002, N-(4-(2-(4-methoxyphenyl)but-3-yn-2-yl)thiazol-2-yl)acetamide] | 6.71 |
| C#CC(C)(c1csc(NC(C)=O)n1)c1ccc(Br)cc1F (centres unmarked) [Example D003, N-(4-(2-(4-bromo-2-fluorophenyl)but-3-yn-2-yl)thiazol-2-yl)acetamide] | 6.74 |
| C#CC(C)(c1ccc(Cl)cc1)c1csc(NC(C)=O)n1 (centres unmarked) [Example D004, N-(4-(2-(4-chlorophenyl)but-3-yn-2-yl)thiazol-2-yl)acetamide] | 7.74 |
| C#CC(C)(c1ccc(Br)cc1)c1csc(NC(=O)C2CC(O)C2)n1 (centres unmarked) [Example D007, N-(4-(2-(4-bromophenyl)but-3-yn-2-yl)thiazol-2-yl)-3-hydroxycyclobutanecarboxamide] | 7.26 |
| C#CC(CC)(c1ccc(Br)cc1)c1csc(NC(C)=O)n1 (centres unmarked) [Example D008, N-(4-(3-(4-bromophenyl)pent-1-yn-3-yl)thiazol-2-yl)acetamide] | 6.84 |
